According to patent US20250332212A1, “METHOD FOR TREATING OR PREVENTING ALOPECIA” (Suzhou Mingren Pharmaceutical Biotechnology Co., Ltd., priority 2024, published 2025):
Square brackets hold non-standard residues; d marks the D form. Ends that are not written are not given here. pS = N[C@@H](COP(=O)(O)O)C(=O)O

Assays:
Wnt1, Wnt3a, Wnt7b = assay: qPCR of the other Wnt molecules in skin tissue; assay type: in vivo, mouse; conditions: P>0.05
Procedure: (§1) To illustrate the regulation of JP1 on the upstream Wnt ligand of β-catenin, this example intersected classical signaling pathway-related Wnt ligands and AGA-related Wnt ligands, and screened out the related Wnt ligands, including Wnt1, Wnt3a, Wnt7b, Wnt10a, and Wnt10b. In this example, qPCR was used to detect the mRNA expression of these Wnt molecules in the skin tissue of the mouse model in Example 6.
(§2) 7.1) Dilute the specific gene amplification primers to 10 µM in ddH2O, prepare the qPCR reaction system according to the instructions in the kit and add them sequentially into a 384-well plate.
(§3) 7.3) Relative mRNA expression levels of genes were calculated by the […] relative quantification method using GAPDH as an internal reference.

Wnt10a = Wnt10a expression in skin tissue (qPCR, Western blotting); assay type: in vivo, mouse
Procedure: as §1
(§4) 4.1) Protein extraction: 70 mg of skin tissue was placed in a 1.5 mL centrifuge tube, and 500 μL of tissue lysate RIPA containing protease inhibitor and phosphatase inhibitor was added. The tissue was placed on an ice box, pulverized by a tissue grinder, and then ultrasonically crushed to obtain a tissue suspension, which was then placed in a rotary windmill at 4° C. to be lysed for 2 h. The centrifuge was set at 12,000×g, 4° C., centrifuged for 15 min, and the supernatant was collected as the total protein.
5.1) Heating of protein samples: the total protein content of each tissue was 50 μg; calculate the volume of a corresponding protein sample, make up the volume with saline to 16 μL, then add 4 μL of 5×SDS sampling buffer, heat at 100° C. for 5 min, and then cool at room temperature and store at −20° C. […]
as §3

Wnt signaling pathway = assay: Proteomics and protein phosphorylation sequencing of skin tissue (KEGG, GSEA); assay type: in vivo, mouse
Procedure: Appropriate amounts of mouse skin tissues (n=3) from the model group and 1% JP1 group were added to a mortar pre-cooled with liquid nitrogen, and ground thoroughly with liquid nitrogen into powders. The samples were separately added to lysis buffer and lysed by ultrasonication. The centrifugation was performed at 4° C., 12,000×g for 10 min, and protein concentration was determined by BCA. Trypsin digestion was followed by liquid chromatography-mass spectrometry serial analysis.

[1] = system: TP-induced AGA model mice; assay: TP-induced AGA model, Animal model II (JP1 topical, dose-effect); assay type: in vivo, C57BL/6J male mice; conditions: for hair coverage on the 18th day: twice a day
Procedure: To prolong the action time of JP1, the design scheme of the animal model in this example adjusted the once-a-day of the first model to twice-a-day administration with an interval of 6 h (FIG. 6A). For details of the experiments, please refer to “Animal model II” of “1. TP-induced AGA model” in “Experimental Methods” below.
The mice used in this study were 5-week-old C57BL/6J male mice (18-20 g), which were purchased from Jiangsu Jicui Pharmachem Biotechnology Co. All the animals used in the experiments were housed in the SPF-level environment of the Medical Laboratory Animal Center of Nanjing Medical University, and the relevant animal experimental operations were approved by the Animal Ethics Committee of Nanjing Medical University. The control group was left untreated, and the other groups were injected with TP subcutaneously on their backs every day. Two weeks later, the hair on the backs of the mice was shaved with an electric razor, covering an area of 2 cm×4 cm, and then the residual hair was removed with a hair removal cream. The subcutaneous injections of TP on the shaved backs of the mice in the AGA model was continued until the end of the experimental period, and the administration of TP in each of the treatment groups was begun on the 1st day of the dehairing process.
In addition to the normal control group (denoted as control) n=20, all mice injected subcutaneously with TP were randomly divided into the following groups (n=20): the model group (denoted as model), the 0.1% JP1, the 0.5% JP1, the 1% JP1 (all administered by topical dermal application), and the 5% minoxidil group.
Mice were weighed every two days during the experiment. Skin color was assessed against skin score charts. The mice were euthanized and treated at the end of the experiment, and skin tissues were taken from the dorsal decorticated area of the mice. Some of the tissues were fixed with 4% paraformaldehyde solution and then paraffin sections were made for H&E or immunofluorescence staining, etc., and some of the tissues were stored in the refrigerator at −80° C. for relevant molecular expression assays (qRT-PCR, Western Blot, IP, etc.).
8.1) Sampling and fixation: After the experiment, skin tissue was taken from the depilated area on the back of the mouse and placed in a 10 mL EP tube. 4% paraformaldehyde was added to the EP tube, and all tissues were immersed to denature and coagulate the proteins of the skin tissue. The original morphology and structure of the cells were maintained.
8.6) H&E staining: the sections pretreated in distilled water were put into aqueous hematoxylin solution for a few minutes for staining. The color was separated in acid water and ammonia for a few seconds each. After rinsing in running water for 1 h, the sections were placed in distilled water for a few moments. The sections were dehydrated in 70% and 90% alcohol for 10 min each, and stained in alcoholic eosin stain for 2-3 min.

E2F1 = assay: qPCR of E2F1 mRNA in skin tissue; assay type: in vivo, mouse; conditions: after JP1 intervention, P<0.01
Procedure: as §2, §3

SRD5A2 = assay: qPCR of SRD5A2 mRNA in skin tissue of model mice; assay type: in vivo, mouse; conditions: model II, P>0.05
Procedure: 6.1) Sample preparation: 15-20 mg of mouse skin tissue was placed in a 1.5 mL centrifuge tube, and 600 μL of pre-cooled lysate was quickly added, and homogenized with an electric homogenizer. The homogenate obtained was blown gently 10 times, left at room temperature for 3-5 min, then centrifuged at 14,000×g for 5 min, and the supernatant was transferred to a new centrifuge tube with a pipette gun of suitable volume.
6.10) Reverse transcribe the RNA into cDNA according to the instructions of the reverse transcription kit, and then carry out subsequent experiments or store at −20° C. for later use.
as §2, §3

β-catenin = β-catenin expression in skin tissue (qPCR, immunoblotting, immunofluorescence); assay type: in vivo, mouse
Procedure: as §4
5.1) Heating of protein samples: the total protein content of each tissue was 50 μg; calculate the volume of a corresponding protein sample, make up the volume with saline to 16 μL, then add 4 μL of 5×SDS sampling buffer, heat at 100° C. for 5 min, and then cool at room temperature and store at −20° C.
5.7) Primary antibody incubation: the cut protein bands were placed into the corresponding primary antibody and incubated at 4° C. on a shaker overnight, washed with TBST 3 times for 10 min/time.
as §2, §3
9.5) Primary antibody incubation: the tissue was circled by the histochemical pen, about 50 μL of primary antibody was added dropwise to the tissue, and incubated in a wet box overnight at 4° C., washed 3 times with PBS.

Substance: FPGSDRF-RGD (FPG[pS]DRFRGD) [JP1, amino acid S is phosphorylated; JWA peptide]
- mRNA levels of the other Wnt molecules among the groups (Wnt1, Wnt3a, Wnt7b): not statistically significant
- Wnt10a protein expression (Wnt10a; Western blotting, dose-dependent): significantly up-regulated
- Wnt10a mRNA expression (Wnt10a; qPCR, P<0.05): elevated with a dose-effect relationship
- KEGG signaling pathway analysis, differences 1% JP1 vs model group (Wnt signaling pathway; skin tissue, proteomics): mainly enriched in the Wnt signaling pathway
- GSEA analysis of Wnt/β-catenin signaling pathway (Wnt signaling pathway; skin tissues of JP1-treated mice): enriched
- hair coverage on the 18th day ([1]; 0.1% JP1 topical): lowest
- hair bulb size on day 11 among groups ([1]; 1% JP1 group): largest
- hair coverage on the 18th day ([1]; 1% JP1 topical): highest hair coverage
- hair follicle phase on day 11 ([1]; H&E longitudinal, model group just entered the anagen phase): mid-growth phase
- total number of hair follicles vs model group ([1]; H&E transverse sections, day 11): increased significantly and dose-dependently
- effect on growth cycle of hair follicles ([1]; JP1 or minoxidil intervention): accelerate the entry of hair follicles into the anagen phase and shorten the resting phase
- diameter of the hair bulb vs model group ([1]; day 11): significantly larger than that of the model group
- difference between body weights of the groups ([1]; during the experiment): no statistically significant difference
- hair follicle phase on day 32 ([1]; medium and high dose JP1 group, model group entered the resting phase): entered the anagen phase again
- dose-effect relationship of AGA hair follicle regeneration ([1]; skin-coating 0.1%, 0.5%, 1% JP1): significant dose-effect relationship
- skin color on the 11th day ([1]; topical, model group appeared orange): changed to gray
- E2F1 mRNA level expression (E2F1): elevated
- SRD5A2 mRNA level, difference between groups (SRD5A2): no statistically significant difference
- β-catenin immunohistofluorescence staining (β-catenin): trend consistent with the results of protein immunoblotting experiments
- β-catenin protein expression (β-catenin; protein immunoblotting, dose-effect relationship for JP1): increased
- β-catenin mRNA expression vs model group (β-catenin; qPCR): increased
